Key:
K-562 = assay: NCI 60 cell line five dose, Leukemia
MOLT-4 = assay: NCI 60 cell line five dose, Leukemia
RPMI-8226 = assay: NCI 60 cell line five dose, Leukemia
LOX IMVI = assay: NCI 60 cell line five dose, Melanoma
SK-MEL-2 = assay: NCI 60 cell line five dose, Melanoma
SK-MEL-28 = assay: NCI 60 cell line five dose, Melanoma
SK-MEL-5 = assay: NCI 60 cell line five dose, Melanoma
SF-268 = assay: NCI 60 cell line five dose, CNS Cancer
SF-539 = assay: NCI 60 cell line five dose, CNS Cancer
COLO 205 = assay: NCI 60 cell line five dose, Colon Cancer
HCC-2998 = assay: NCI 60 cell line five dose, Colon Cancer
HT29 = assay: NCI 60 cell line five dose, Colon Cancer

C=C1C(=O)O[C@H]2[C@H]1CC/C(COC(=O)NCCCCCCCCNC(=O)OC/C1=C/CC[C@@]3(C)O[C@H]3[C@H]3OC(=O)C(=C)[C@@H]3CC1)=C\CC[C@@]1(C)O[C@@H]21 [JVM 3-62, bis(((1aR,7aS, 10aS, 10bS, E)-1a-Methyl-8-methylene-9-oxo-1a,2,3,6,7,7a,8,9,10a,10b-decahydrooxireno[2′,3′:9,10]cyclodeca[1,2-b]furan-5-yl)methyl)octane-1,8-diyldicarbamate]
Percent Growth (K-562; Log10 Concentration −4.0): −44%
Percent Growth (K-562; Log10 Concentration −5.0): −14%
Percent Growth (K-562; Log10 Concentration −6.0): 2%
Percent Growth (K-562; Log10 Concentration −7.0): 107%
Percent Growth (K-562; Log10 Concentration −8.0): 103%
GI50 (K-562; molar): 349 nM
TGI (K-562; molar): 1.37E−6
CC50 (K-562; read-out: LC50, molar): > 100 µM
Percent Growth (MOLT-4; Log10 Concentration −4.0): −34%
Percent Growth (MOLT-4; Log10 Concentration −5.0): −27%
Percent Growth (MOLT-4; Log10 Concentration −6.0): 2%
Percent Growth (MOLT-4; Log10 Concentration −7.0): 101%
Percent Growth (MOLT-4; Log10 Concentration −8.0): 100%
GI50 (MOLT-4; molar): 330 nM
TGI (MOLT-4; molar): 1.18E−6
CC50 (MOLT-4; read-out: LC50, molar): > 100 µM
Percent Growth (RPMI-8226; Log10 Concentration −4.0): −38%
Percent Growth (RPMI-8226; Log10 Concentration −5.0): −45%
Percent Growth (RPMI-8226; Log10 Concentration −6.0): −13%
Percent Growth (RPMI-8226; Log10 Concentration −7.0): 92%
Percent Growth (RPMI-8226; Log10 Concentration −8.0): 98%
GI50 (RPMI-8226; molar): 250 nM
TGI (RPMI-8226; molar): 7.45E−7
CC50 (RPMI-8226; read-out: LC50, molar): > 100 µM
Percent Growth (LOX IMVI; Log10 Concentration −4.0): −81%
Percent Growth (LOX IMVI; Log10 Concentration −5.0): −90%
Percent Growth (LOX IMVI; Log10 Concentration −6.0): −69%
Percent Growth (LOX IMVI; Log10 Concentration −7.0): 90%
Percent Growth (LOX IMVI; Log10 Concentration −8.0): 98%
GI50 (LOX IMVI; molar): 178 nM
CC50 (LOX IMVI; read-out: LC50, molar): 761 nM
Percent Growth (SK-MEL-2; Log10 Concentration −4.0): −68%
Percent Growth (SK-MEL-2; Log10 Concentration −5.0): −45%
Percent Growth (SK-MEL-2; Log10 Concentration −6.0): 36%
Percent Growth (SK-MEL-2; Log10 Concentration −7.0): 100%
Percent Growth (SK-MEL-2; Log10 Concentration −8.0): 92%
GI50 (SK-MEL-2; molar): 601 nM
TGI (SK-MEL-2; molar): 2.79E−6
Percent Growth (SK-MEL-28; Log10 Concentration −4.0): −71%
Percent Growth (SK-MEL-28; Log10 Concentration −5.0): −77%
Percent Growth (SK-MEL-28; Log10 Concentration −6.0): −37%
Percent Growth (SK-MEL-28; Log10 Concentration −7.0): 90%
Percent Growth (SK-MEL-28; Log10 Concentration −8.0): 92%
GI50 (SK-MEL-28; molar): 205 nM
TGI (SK-MEL-28; molar): 5.11E−7
CC50 (SK-MEL-28; read-out: LC50, molar): 2120 nM
Percent Growth (SK-MEL-5; Log10 Concentration −4.0): −87%
Percent Growth (SK-MEL-5; Log10 Concentration −5.0): −89%
Percent Growth (SK-MEL-5; Log10 Concentration −6.0): 63%
Percent Growth (SK-MEL-5; Log10 Concentration −7.0): 95%
Percent Growth (SK-MEL-5; Log10 Concentration −8.0): 99%
GI50 (SK-MEL-5; molar): 1210 nM
TGI (SK-MEL-5; molar): 2.59E−6
CC50 (SK-MEL-5; read-out: LC50, SK-MEL-6, molar): 5.53 µM
Percent Growth (SF-268; Log10 Concentration −4.0): −59%
Percent Growth (SF-268; Log10 Concentration −5.0): −66%
Percent Growth (SF-268; Log10 Concentration −6.0): 50%
Percent Growth (SF-268; Log10 Concentration −7.0): 104%
Percent Growth (SF-268; Log10 Concentration −8.0): 101%
GI50 (SF-268; molar): 999 nM
TGI (SF-268; molar): 2.69E−6
CC50 (SF-268; read-out: LC50, molar): 7.24 µM
Percent Growth (SF-539; Log10 Concentration −4.0): −83%
Percent Growth (SF-539; Log10 Concentration −5.0): −91%
Percent Growth (SF-539; Log10 Concentration −6.0): −27%
Percent Growth (SF-539; Log10 Concentration −7.0): 95%
Percent Growth (SF-539; Log10 Concentration −8.0): 89%
GI50 (SF-539; molar): 235 nM
TGI (SF-539; molar): 5.99E−7
CC50 (SF-539; read-out: LC50, molar): 2260 nM
Percent Growth (COLO 205; Log10 Concentration −4.0): −65%
Percent Growth (COLO 205; Log10 Concentration −5.0): −73%
Percent Growth (COLO 205; Log10 Concentration −6.0): −15%
Percent Growth (COLO 205; Log10 Concentration −7.0): 109%
Percent Growth (COLO 205; Log10 Concentration −8.0): 104%
GI50 (COLO 205; molar): 300 nM
TGI (COLO 205; molar): 7.56E−7
CC50 (COLO 205; read-out: LC50, molar): 3.99 µM
Percent Growth (HCC-2998; Log10 Concentration −4.0): −92%
Percent Growth (HCC-2998; Log10 Concentration −5.0): −93%
Percent Growth (HCC-2998; Log10 Concentration −6.0): 63%
Percent Growth (HCC-2998; Log10 Concentration −7.0): 98%
Percent Growth (HCC-2998; Log10 Concentration −8.0): 100%
GI50 (HCC-2998; molar): 1200 nM
TGI (HCC-2998; molar): 2.52E−6
CC50 (HCC-2998; read-out: LC50, molar): 5.28 µM
Percent Growth (HT29; Log10 Concentration −4.0): −84%
Percent Growth (HT29; Log10 Concentration −5.0): −80%
Percent Growth (HT29; Log10 Concentration −6.0): −33%
Percent Growth (HT29; Log10 Concentration −7.0): 97%
Percent Growth (HT29; Log10 Concentration −8.0): 100%
GI50 (HT29; molar): 228 nM

From patent US10118935B2, “Melampomagnolide B dimers” (priority 2014, dated 2018)
